Source: patent US10383849B2, “Use of an acetylcholinesterase inhibitor and idalopirdine for reducing falls in Parkinson's disease patients” (H. Lundbeck A/S, priority 2016, dated 2019)

Assays:
[1] = tested on: DL rats (dual striatal-dopaminergic, cortical cholinergic system lesions); assay: MCMCT rod traversal, stationary and rotating rod (test days 2-5), Example 1; type: in vivo, Sprague Dawley rats; details: for number of slips: rod days 2-5, DL/VEH 2.04+0.16, SH/VEH 1.60+0.11; for traversal speed (time per rod traversal): rod days 2-5, DL/VEH 4.62±0.25 s, SH/VEH 3.96±0.19 s, mean±SEM; for frequency of falls during rod traversal: s.c. 30 min before MCMCT, across all rod conditions days 2-5, compared with DL/VEH
Description: Adult male and female Sprague Dawley rats (Harlan; N=70; 35 males and 35 females) between 3 and 6 months of age were individually housed in opaque single standard cages (27.70 cm×20.30 cm) in a temperature- and humidity-controlled environment (23° C., 45%). […] The animals were maintained under a 12:12 hour light/dark schedule (lights on at 8:00 AM). Food (Rodent Chow; Harlan Teklad) was available ad libitum. Water access was gradually restricted over a 7-day period (12, 8, 5, 3, 1, 0.5, 0.25 hrs of water access per day) in the week before pre- and postsurgery behavioral testing. During testing, water was provided as rewards for correct responses during SAT performance and following beam traversals on the MCMCT (see below). Rats were also provided water ad libitum for 15 min following SAT performance each day.
Following pre-surgery training, animals underwent stereotaxic lesion surgeries followed by 4 weeks of recovery. During the final week of recovery animals were gradually water restricted. Drug effects were then assessed with 12 consecutive days of SAT and MCMCT sessions (see Table 1 for the battery of MCMCT test conditions):
Drug or vehicle injections were administered 30 minutes prior to SAT performance (˜9:30 injections, SAT testing 10:00-10:45 a.m.) and in the afternoon before MCMCT testing (˜3:30-6:00 p.m.). For the MCMCT runs, rats were injected individually so that trials began exactly 30 minutes after injection for each animal.
(§1) Of the 70 rats, 56 (28 females and 28 males) received dual striatal-dopaminergic, corticalcholinergic system lesions (DL) and were randomly assigned to 4 treatment conditions after surgeries (n=14/group, 7/sex). 14 rats (7/sex) received sham lesions. 6-OHDA was delivered bilaterally to dopamine terminals in the dorsal striatum (Sigma-Aldrich; 6.0 μg/2 μL/infusion, bolus; dissolved in 0.9% NaCl with 0.1% ascorbic acid; two infusion sites per hemisphere: AP+1.2 and +0.2 mm; ML ±2.5 and ±3.0 mm relative to bregma; DV −4.8 and −5.0 mm from skull). Desipramine hydrochloride (10 mg/kg; i.p.; Sigma-Aldrich) was administered to rats receiving 6-OHDA infusions 30 min prior to surgeries for protection of noradrenergic neurons^4. Basal forebrain cholinergic neurons situated in the nucleus basalis and substantia innominate were targeted with immunotoxin 192 IgG-saporin (Advanced Targeting Systems) in aCSF infused bilaterally (120 ng/μL; 0.5 μL/hemisphere; AP −0.8; ML ±2.9; DV −7.8). Sham rats received equal volumes of 0.9% NaCl with 0.1% ascorbic acid (striatum) and aCSF (basal forebrain) without neurotoxins.
Complex movement performance measures including fall propensity were assessed using the MCMCT (for details and an illustration see Kucinski, A. et al (2013) Modelling fall propensity in Parkinson's disease: Deficits in the attentional control of complex movements in rats with cortical-cholinergic and striatal-dopaminergic deafferentation. J Neurosci, 33, 16522-16539). This beam traversal apparatus was designed to tax the ability of rats to perform attention demanding movements and correct for stepping errors while crossing a narrow square rod surface (2.54 cm2). The ends of the beam (2.0 m length) were held in sockets that allowed the rod to be rotated by a gear motor (10 RPM) coupled to one end of the beam element. Traversal of the rod, particularly when rotating, reliably generated falls and other movement impairments in rats with dual lesions of striatal dopaminergic and cortical cholinergic inputs. A flat plank surface (13.3 cm wide) was also used to assess basic motor capacity and for habituation to the apparatus. Two identical platforms (23.0×31.5 cm area) situated at the opposite ends of the beam were surrounded by retractable walls (27.0 cm height) to form end-box structures. The walls are raised and lowered manually and secured in position by a friction clamp which rides in a vertical slot in the support structure under the platform. […]

[2] = tested on: DL rats (dual striatal-dopaminergic, cortical cholinergic system lesions); assay: MCMCT rotating rod with active distractor (water retrieval); type: in vivo, Sprague Dawley rats; details: for number of animals that retrieved water in at least one trial: of 14 DL rats per group, licking water for at least 1 s, DL/VEH 9, SH/VEH 13
Description: as §1
Two distractors were presented during traversals. First, a passive doorframe distractor, comprised of a 46.0×39.4 cm surface with a door-frame shape cutout of 20 cm×10 cm made of foam core, was incorporated into the MCMCT test sequence. The distractor was placed at the midway point along the beam (100 cm mark) with side jambs 3.5 cm from the rod surface on both sides and the top border of the doorframe cutout 11 cm above the flat rod surface. […] Second, animals were tested with an active distractor task in which a water reward (3 drops of water; ˜150 μL) was presented on a platform (4.9 cm diameter) during traversals. The platform was also placed at the 100 cm mark, with 2-3 cm separating the rod and the platform.
Rats were first acclimated to the task in 4 shaping trials (test days 8 and 9). In these trials rats were placed directly on the stationary (non-rotating) rod adjacent to the platform (approximately midway across the beam) and allowed to drink the water from the platform. After shaping trials, rats underwent 4 test trials in which the rats performed unassisted traversals of the rotating rod (alternating directions) with presentations of water rewards. In two other test days (10 and 12), rats performed 10 test runs per day. In addition to falls, the number of water rewards earned, defined as licking/drinking water from the platform for ≥1 sec, were counted. All trials were recorded using a system of 4 bullet cameras (KT&C; model KPCS190SH Black/White Bullet Camera with ⅓″ SONY Super HAD CCD) with rotatable bases that were fastened to the outer support frame of the outer side of the apparatus by hand clamps. Performance measures were analyzed by video playback by experimenters blind to the lesion status and treatment regimen of the rats
Donepezil and idalopirdine were dissolved in 5% 2-hydroxypropyl-beta-cyclodextrin vehicle solution. Rats were divided into the following drug administration groups (14 per group, 7 per sex): sham-lesioned and administered vehicle (SH/VEH), DL and vehicle (DL/VEH), DL and donepezil (DL/DON), DL and idalopirdine (DL/IDL), and DL and idalopirdine plus donepezil (DL/DON+IDL). Solutions were prepared the night before administration and were replaced every 6 days. DON and IDL were dissolved in the same solution for the combination treatment. […]

[3] = tested on: DL rats (dual striatal-dopaminergic, cortical cholinergic system lesions); assay: MCMCT rotating rod with passive doorframe distractor (test days 6, 7, 11); type: in vivo, Sprague Dawley rats; details: compared with SH/VEH rats
Description: Of the 70 rats, 56 (28 females and 28 males) received dual striatal-dopaminergic, corticalcholinergic system lesions (DL) and were randomly assigned to 4 treatment conditions after surgeries (n=14/group, 7/sex). 14 rats (7/sex) received sham lesions. 6-OHDA was delivered bilaterally to dopamine terminals in the dorsal striatum (Sigma-Aldrich; 6.0 μg/2 μL/infusion, bolus; dissolved in 0.9% NaCl with 0.1% ascorbic acid; two infusion sites per hemisphere: AP+1.2 and +0.2 mm; ML ±2.5 and ±3.0 mm relative to bregma; DV −4.8 and −5.0 mm from skull). […]
Complex movement performance measures including fall propensity were assessed using the MCMCT (for details and an illustration see Kucinski, A. et al (2013) Modelling fall propensity in Parkinson's disease: Deficits in the attentional control of complex movements in rats with cortical-cholinergic and striatal-dopaminergic deafferentation. J Neurosci, 33, 16522-16539). […]
Falls, slips, and traversal time were assessed as described in Kucinski, A. et al (2013) Modelling fall propensity in Parkinson's disease: Deficits in the attentional control of complex movements in rats with cortical-cholinergic and striatal-dopaminergic deafferentation. […] A slip was scored when any of the rats' paws lost contact with the surface of the rod and extended below the lower horizontal border of the rod. […]

patients with AD = details: compared to donepezil treated patients; cited from earlier work

Row | Structure (SMILES) | number of slips [1] | traversal speed (time per rod traversal) [1] [s] | frequency of falls during rod traversal [1] | rod traversal performance in the presence of the active distractor ([2]; DL rats) | number of animals that retrieved water in at least one trial [2] | doorframe-associated falls (fall rates in the presence of the doorframe) [3] | secondary endpoints including measures of global impression and daily living activities (patients with AD) | water retrieval count ([2]; DL rats, multiple comparisons (FIG. 3B))
1 | Fc1ccc2c(CCNCc3cccc(OCC(F)(F)C(F)F)c3)c[nH]c2c1 [IDL, N-(2-(6-fluoro-1H-indol-3-yl)ethyl)-3-(2,2,3,3-tetrafluoropropoxy) benzylamine] | 2.51+0.38 | 5.48 ± 0.45 | fell as frequently as untreated DL rats | did not significantly improve the performance | 11 | experienced more doorframe-associated falls than SH/VEH rats | positive results | –
2 | COc1cc2c(cc1OC)C(=O)C(CC1CCN(Cc3ccccc3)CC1)C2 (centres unmarked) [DON, donepezil] | 2.04+0.14 | 4.48 ± 0.36 | tended to be lower than in DL/VEH rats but the effect did not reach significance | did not significantly improve the performance | 10 | experienced more doorframe-associated falls than SH/VEH rats | – | not significantly lower than DL/VEH
